Measurements reported in patent publication US10544112B2, “Identification of ebsulfur analogues with broad-spectrum antifungal activity” (priority 2017, dated 2020).
≈ marks a conversion by molar mass, not a printed value.

Key:
Candida strains (A-J) = assay: Antifungal MIC, summary over panel of Candida strains; assay type: cell-based; conditions: Candida strains A-J
Method: (§1) Fungal MIC determination experiments were performed using untreated 96-well plates (Corning). Cells were counted either by using a hemocytometer (Hausser Scientific, Horsham, Pa., USA) or by measuring optical density at attenuance of 600 nm (OD600) by using a Genesys 20 spectrophotometer (Thermo Scientific, Waltham, Mass., USA). Spectrophotometric and colorimetric measurements in 96-well plates were performed using a SpectraMax M5 spectrometer (Molecular Devices, Sunnyvale, Calif., USA).
(§2) Yeast strains Candida albicans ATCC 10231 (strain A), C. albicans ATCC 64124 (strain B), and C. albicans ATCC MYA-2876(S) (strain C) were kindly provided by Dr. Jon Y. Takemoto (Utah State University, Logan, UT, USA). C. albicans ATCC MYA-90819(R) (strain D), C. albicans ATCC MYA-2310(S) (strain E), C. albicans ATCC 1237(R) (strain F), C. albicans ATCC MYA-1003(R) (strain G), Candida glabrata ATCC 2001 (strain H), Candida krusei ATCC 6258 (strain I), and Candida parapsilosis ATCC 22019 (strain J) were obtained from the American Type Culture Collection (ATCC, Manassas, Va., USA). The (S) and (R) indicate that ATCC reports these strains to be susceptible (S) and resistant (R) to ITC and FLC. The filamentous fungal strains Aspergillus flavus ATCC MYA-3631 (strain K), and Aspergillus terreus ATCC MYA-3633 (strain M) were also obtained from the American Type Culture Collection (ATCC, Manassas, Va., USA). Aspergillus nidulans ATCC 38163 (strain L) was kindly provided by Dr. Jon S. Thorson (University of Kentucky, Lexington, Ky., USA), respectively. Yeast strains were cultured at 35° C. Filamentous fungal strains were cultured at 25° C. and the spores were harvested. All fungal strains were cultured in RPMI 1640 medium (catalog # R6504, Sigma-Aldrich Chemical Co., St. Louis, Mo.) buffered to pH 7.0 with 0.165 M morpholinepropanesulfonic acid (MOPS) buffer (Sigma-Aldrich Chemical Co.).
(§3) The MIC values against fungal strains were determined based on a previously published protocol. MIC values for ebsulfur (2a) analogues against fungal cells were evaluated in 96-well plates as described in the CLSI document M27-A3 with minor modifications. […] Therefore, potato dextrose broth (PDB) was used to grow the yeast inocula of all strains tested, which were later diluted in RPMI 1640 medium to perform determination of MIC values. […] The tested compounds (10 mg/mL) were diluted to the working stocks (500 μg/mL) by addition of DMSO. Two-fold serial dilution of the working stocks was prepared by addition of RPMI 1640 medium (100 μL) and cell suspension (100 μL) to 96-well microtiter plate to achieve final drug and inoculum concentrations ranging from 12.5-0.02 μg/mL and 5×10^3 CFU/mL, respectively. Plates were incubated for 48 h at 35° C. […]

[1] = tested on: C. albicans ATCC MYA-1237(R) (strain F); assay: microbe, parasite or virus in culture; assay type: cell-based, Candida albicans; conditions: strain F; compounds 1-4n and AmB; 48 h, RPMI 1640
Method: as §1, §2, §3

[2] = tested on: C. albicans ATCC 64124 (strain B); assay: microbe, parasite or virus in culture; assay type: cell-based, Candida albicans; conditions: strain B; compounds 1-4n and AmB; 48 h, RPMI 1640
Method: as §1, §2, §3

[3] = tested on: C. albicans ATCC MYA-1003(R) (strain G); assay: microbe, parasite or virus in culture; assay type: cell-based, Candida albicans; conditions: strain G; compounds 1-4n and AmB; 48 h, RPMI 1640
Method: as §1, §2, §3

[4] = tested on: C. albicans ATCC 90819(R) (strain D); assay: microbe, parasite or virus in culture; assay type: cell-based, Candida albicans; conditions: strain D; compounds 1-4n and AmB; 48 h, RPMI 1640
Method: as §1, §2, §3

[5] = tested on: Aspergillus terreus ATCC MYA-3633 (strain M); assay: Antifungal MIC determination, filamentous fungi spores; assay type: cell-based; conditions: strain M; all compounds; spores
Method: as §1, §2
(§4) The MIC values against fungal strains were determined based on a previously published protocol. MIC values for ebsulfur (2a) analogues against fungal cells were evaluated in 96-well plates as described in the CLSI document M27-A3 with minor modifications. […] Therefore, potato dextrose broth (PDB) was used to grow the yeast inocula of all strains tested, which were later diluted in RPMI 1640 medium to perform determination of MIC values. […] The tested compounds (10 mg/mL) were diluted to the working stocks (500 μg/mL) by addition of DMSO. Two-fold serial dilution of the working stocks was prepared by addition of RPMI 1640 medium (100 μL) and cell suspension (100 μL) to 96-well microtiter plate to achieve final drug and inoculum concentrations ranging from 12.5-0.02 μg/mL and 5×10^3 CFU/mL, respectively. Plates were incubated for 48 h at 35° C.
(§5) MIC assays for the spore-forming filamentous fungi, such as strain A. flavus ATCC MYA-3631 (strain K), were performed in a similar fashion. The filamentous fungal strains were first cultured at 25° C. on potato dextrose agar (PDA) plates for 3-5 days or until confluent. Spores were collected by washing the surface of the agar plates with dd H2O (5 mL) and then isolated the spores by gravity filtration (the spores are H2O soluble). […] Researchers working with spores should wear a facemask to prevent spore inhalation.

[6] = tested on: Aspergillus flavus ATCC MYA-3631 (strain K); assay: as above; assay type: cell-based; conditions: all compounds
Method: as §1, §2, §4, §5

[7] = tested on: Aspergillus nidulans ATCC 38163 (strain L); assay: as above; assay type: cell-based; conditions: strain L; spores
Method: as §1, §2, §4, §5

[8] = tested on: Candida krusei ATCC 6258 (strain I); assay: Antifungal MIC determination (CLSI M27-A3, 96-well); assay type: cell-based; conditions: strain I; compounds 1-4n and AmB; 48 h, RPMI 1640
Method: as §1, §2, §3

[9] = tested on: Candida glabrata ATCC 2001 (strain H); assay: as above; assay type: cell-based; conditions: strain H; compounds 1-4n and AmB; 48 h, RPMI 1640
Method: as §1, §2, §3

[10] = tested on: Candida parapsilosis ATCC 22019 (strain J); assay: as above; assay type: cell-based; conditions: strain J; compounds 1-4n and AmB; 48 h, RPMI 1640
Method: as §1, §2, §3

[11] = tested on: Candida albicans ATCC 10231 (strain A); assay: as above; assay type: cell-based; conditions: strain A; compounds 1-4n and AmB; 48 h, RPMI 1640
Method: as §1, §2, §3

[12] = tested on: C. albicans ATCC MYA-2310(S) (strain E); assay: as above; assay type: cell-based, Candida albicans; conditions: strain E; compounds 1-4n and AmB; 48 h, RPMI 1640
Method: as §1, §2, §3

[13] = tested on: C. albicans ATCC MYA-2876(S) (strain C); assay: as above; assay type: cell-based, Candida albicans; conditions: strain C; compounds 1-4n and AmB; 48 h, RPMI 1640
Method: as §1, §2, §3

SMILES	MIC values against Candida strains, range (Candida strains (A-J))	MIC-0 [1]	MIC-0 [2]	MIC-0 [3]	MIC-0 [4]	MIC-0 [5]	MIC-0 [6]	MIC-0 [7]	MIC-0 [8]	MIC-0 [9]	MIC-0 [10]	MIC-0 [11]	MIC-0 [12]	MIC-0 [13]
CC(C)c1ccc(-n2sc3ccccc3c2=O)cc1 [Compound 2e]	3.13 to 6.25 µg/mL	6.25 µg/mL (≈ 23.2 µM)	3.13 µg/mL (≈ 11.6 µM)	3.13 µg/mL (≈ 11.6 µM)	3.13 µg/mL (≈ 11.6 µM)	6.25 µg/mL (≈ 23.2 µM)	6.25 µg/mL (≈ 23.2 µM)	6.25 µg/mL (≈ 23.2 µM)	3.13 µg/mL (≈ 11.6 µM)	3.13 µg/mL (≈ 11.6 µM)	3.13 µg/mL (≈ 11.6 µM)	3.13 µg/mL (≈ 11.6 µM)	3.13 µg/mL (≈ 11.6 µM)	3.13 µg/mL (≈ 11.6 µM)
C#Cc1ccc(-n2sc3ccccc3c2=O)cc1 [Compound 2f]	> 12.5 µg/mL	12.5 µg/mL (≈ 49.7 µM)	12.5 µg/mL (≈ 49.7 µM)	12.5 µg/mL (≈ 49.7 µM)	12.5 µg/mL (≈ 49.7 µM)	12.5 µg/mL (≈ 49.7 µM)	12.5 µg/mL (≈ 49.7 µM)	12.5 µg/mL (≈ 49.7 µM)	6.25 µg/mL (≈ 24.9 µM)	6.25 µg/mL (≈ 24.9 µM)	12.5 µg/mL (≈ 49.7 µM)	12.5 µg/mL (≈ 49.7 µM)	>12.5 µg/mL	>12.5 µg/mL
O=c1c2ccccc2sn1-c1cccc(Br)c1 [Compound 2g]	> 12.5 µg/mL	12.5 µg/mL (≈ 40.8 µM)	12.5 µg/mL (≈ 40.8 µM)	12.5 µg/mL (≈ 40.8 µM)	12.5 µg/mL (≈ 40.8 µM)	12.5 µg/mL (≈ 40.8 µM)	12.5 µg/mL (≈ 40.8 µM)	12.5 µg/mL (≈ 40.8 µM)	12.5 µg/mL (≈ 40.8 µM)	12.5 µg/mL (≈ 40.8 µM)	12.5 µg/mL (≈ 40.8 µM)	>12.5 µg/mL	>12.5 µg/mL	12.5 µg/mL (≈ 40.8 µM)
O=c1c2ccccc2sn1-c1ccc(Cl)cn1 [Compound 2n]	> 12.5 µg/mL	12.5 µg/mL (≈ 47.6 µM)	12.5 µg/mL (≈ 47.6 µM)	12.5 µg/mL (≈ 47.6 µM)	>12.5 µg/mL	>12.5 µg/mL	>12.5 µg/mL	>12.5 µg/mL	>12.5 µg/mL	>12.5 µg/mL	>12.5 µg/mL	12.5 µg/mL (≈ 47.6 µM)	12.5 µg/mL (≈ 47.6 µM)	12.5 µg/mL (≈ 47.6 µM)
CCCCCCCCCCCCn1sc2ccccc2c1=O [Compound 3d]	> 12.5 µg/mL	>12.5 µg/mL	>12.5 µg/mL	>12.5 µg/mL	>12.5 µg/mL	>12.5 µg/mL	>12.5 µg/mL	>12.5 µg/mL	>12.5 µg/mL	12.5 µg/mL (≈ 39.1 µM)	>12.5 µg/mL	>12.5 µg/mL	>12.5 µg/mL	>12.5 µg/mL
CC(C)Cn1sc2ccccc2c1=O [Compound 3e]	–	0.78 µg/mL (≈ 3.76 µM)	1.56 µg/mL (≈ 7.53 µM)	1.56 µg/mL (≈ 7.53 µM)	0.78 µg/mL (≈ 3.76 µM)	0.10 µg/mL (≈ 0.482 µM)	0.20 µg/mL (≈ 0.965 µM)	0.02 µg/mL (≈ 0.0965 µM)	0.39 µg/mL (≈ 1.88 µM)	1.56 µg/mL (≈ 7.53 µM)	0.78 µg/mL (≈ 3.76 µM)	0.78 µg/mL (≈ 3.76 µM)	0.78 µg/mL (≈ 3.76 µM)	0.78 µg/mL (≈ 3.76 µM)
CC(C)CCn1sc2ccccc2c1=O [Compound 3f]	–	0.78 µg/mL (≈ 3.52 µM)	0.78 µg/mL (≈ 3.52 µM)	1.56 µg/mL (≈ 7.05 µM)	0.78 µg/mL (≈ 3.52 µM)	0.10 µg/mL (≈ 0.452 µM)	0.20 µg/mL (≈ 0.904 µM)	0.02 µg/mL (≈ 0.0904 µM)	0.39 µg/mL (≈ 1.76 µM)	1.56 µg/mL (≈ 7.05 µM)	1.56 µg/mL (≈ 7.05 µM)	1.56 µg/mL (≈ 7.05 µM)	0.78 µg/mL (≈ 3.52 µM)	1.56 µg/mL (≈ 7.05 µM)
O=c1c2ccccc2sn1CCc1ccccc1 [Compound 3i]	–	1.56 µg/mL (≈ 6.11 µM)	1.56 µg/mL (≈ 6.11 µM)	1.56 µg/mL (≈ 6.11 µM)	1.56 µg/mL (≈ 6.11 µM)	0.20 µg/mL (≈ 0.783 µM)	0.78 µg/mL (≈ 3.05 µM)	0.20 µg/mL (≈ 0.783 µM)	1.56 µg/mL (≈ 6.11 µM)	1.56 µg/mL (≈ 6.11 µM)	1.56 µg/mL (≈ 6.11 µM)	1.56 µg/mL (≈ 6.11 µM)	1.56 µg/mL (≈ 6.11 µM)	1.56 µg/mL (≈ 6.11 µM)
O=c1c2ccccc2sn1CCCc1ccccc1 [Compound 3j]	1.56 to 62.5 µg/mL	6.25 µg/mL (≈ 23.2 µM)	3.13 µg/mL (≈ 11.6 µM)	6.25 µg/mL (≈ 23.2 µM)	3.13 µg/mL (≈ 11.6 µM)	0.20 µg/mL (≈ 0.742 µM)	0.78 µg/mL (≈ 2.9 µM)	0.20 µg/mL (≈ 0.742 µM)	1.56 µg/mL (≈ 5.79 µM)	1.56 µg/mL (≈ 5.79 µM)	6.25 µg/mL (≈ 23.2 µM)	6.25 µg/mL (≈ 23.2 µM)	6.25 µg/mL (≈ 23.2 µM)	6.25 µg/mL (≈ 23.2 µM)
O=c1c2ccccc2sn1C1CCCCCC1 [Compound 3m]	–	1.56 µg/mL (≈ 6.31 µM)	1.56 µg/mL (≈ 6.31 µM)	3.13 µg/mL (≈ 12.7 µM)	1.56 µg/mL (≈ 6.31 µM)	0.20 µg/mL (≈ 0.809 µM)	0.10 µg/mL (≈ 0.404 µM)	0.20 µg/mL (≈ 0.809 µM)	0.39 µg/mL (≈ 1.58 µM)	3.13 µg/mL (≈ 12.7 µM)	3.13 µg/mL (≈ 12.7 µM)	1.56 µg/mL (≈ 6.31 µM)	3.13 µg/mL (≈ 12.7 µM)	3.13 µg/mL (≈ 12.7 µM)
